Measurements as given in ChEMBL document CHEMBL3351364 (J Med Chem, 2014).

Assays:
[1] = Half life in beagle dog at 10 mg/kg, po; assay type: ADME, organism-based, Canis lupus familiaris; parameters: dose 10 mg/kg, route oral; conditions: in vivo
[2] = Oral bioavailability in beagle dog at 10 mg/kg; assay type: ADME, organism-based, Canis lupus familiaris; conditions: in vivo
[3] = test system: Rattus norvegicus; test: (§1) Toxicity in ip dosed Wistar rat; assay type: organism-based; conditions: in vivo
[4] = as §1; assay type: organism-based; conditions: Wistar, in vivo
[5] = target: T1, Cytochrome P450 1A2 (Homo sapiens, UniProt P05177); test: Inhibition of human liver CYP1A2; assay type: ADME
T1 sequence (P05177 whole entry): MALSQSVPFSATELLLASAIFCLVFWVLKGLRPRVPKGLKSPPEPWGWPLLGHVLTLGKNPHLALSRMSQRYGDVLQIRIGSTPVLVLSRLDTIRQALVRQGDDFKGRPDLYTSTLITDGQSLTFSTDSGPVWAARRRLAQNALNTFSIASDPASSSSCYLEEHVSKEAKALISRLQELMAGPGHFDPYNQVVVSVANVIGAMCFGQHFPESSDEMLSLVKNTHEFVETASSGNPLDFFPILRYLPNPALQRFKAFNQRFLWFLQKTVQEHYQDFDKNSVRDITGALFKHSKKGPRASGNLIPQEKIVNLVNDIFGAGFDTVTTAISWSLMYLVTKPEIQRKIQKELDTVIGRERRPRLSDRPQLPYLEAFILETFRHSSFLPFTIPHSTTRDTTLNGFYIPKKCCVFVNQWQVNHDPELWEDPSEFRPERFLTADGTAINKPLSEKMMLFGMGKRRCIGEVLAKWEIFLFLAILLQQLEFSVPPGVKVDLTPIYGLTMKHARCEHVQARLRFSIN

[6] = test system: Hepatitis C virus; test: Antiviral activity against HCV genotype 2a; assay type: functional, Hepacivirus hominis
[7] = Metabolic stability in human liver microsomes assessed as residual compound at 1 uM after 60 mins; assay type: ADME; conditions: read-out: Stability
[8] = organism: Rattus norvegicus; test: Toxicity in female rat assessed as adverse effect on reproductive organ; assay type: organism-based; conditions: in vivo
[9] = Half life in Sprague-Dawley rat at 2.8 mg/kg, iv as 30 mins infusion; assay type: ADME, organism-based; parameters: dose 2.8 mg/kg, route intravenous; conditions: in vivo
[10] = Solubility of the compound in water at pH 2; assay type: physicochemical
[11] = Lipophilicity, log P of the compound; assay type: physicochemical; conditions: octanol/water
[12] = test system: Salmonella typhimurium; test: Mutagenicity in Salmonella typhimurium TA1535 assessed as increase in number of colonies by Ames test relative to control; assay type: toxicity, organism-based; conditions: salmonella enterica subsp. enterica serovar typhimurium
[13] = Therapeutic index, ratio of CC50 for human Huh7 cells to EC50 for HCV genotype 1b infected in human Huh7 cells; assay type: cell-based, Huh-7; conditions: read-out: Ratio CC50/EC50
[14] = test system: Salmonella typhimurium; test: Mutagenicity in Salmonella typhimurium TA98 assessed as increase in number of colonies by Ames test relative to control; assay type: toxicity, organism-based; conditions: salmonella enterica subsp. enterica serovar typhimurium
[15] = Oral bioavailability in Sprague-Dawley rat at 11.2 mg/kg; assay type: ADME, organism-based; conditions: in vivo
[16] = (§2) Toxicity in po dosed male SHK mouse; assay type: organism-based; conditions: male, SHK, in vivo
[17] = test system: Mus musculus; test: as §2; assay type: organism-based; conditions: in vivo
[18] = test system: Hepatitis C virus; test: Antiviral activity against HCV genotype 1b infected in human Huh7 cells after 3 days by cell-based replicon assay in presence of 40% normal human serum; assay type: functional, Hepacivirus hominis; conditions: Huh-7, 72 h
[19] = target: Cytochrome P450 3A4 (Homo sapiens, UniProt P08684); test: Inhibition of human liver CYP3A4; assay type: ADME
Cytochrome P450 3A4, sequence (P08684 whole entry): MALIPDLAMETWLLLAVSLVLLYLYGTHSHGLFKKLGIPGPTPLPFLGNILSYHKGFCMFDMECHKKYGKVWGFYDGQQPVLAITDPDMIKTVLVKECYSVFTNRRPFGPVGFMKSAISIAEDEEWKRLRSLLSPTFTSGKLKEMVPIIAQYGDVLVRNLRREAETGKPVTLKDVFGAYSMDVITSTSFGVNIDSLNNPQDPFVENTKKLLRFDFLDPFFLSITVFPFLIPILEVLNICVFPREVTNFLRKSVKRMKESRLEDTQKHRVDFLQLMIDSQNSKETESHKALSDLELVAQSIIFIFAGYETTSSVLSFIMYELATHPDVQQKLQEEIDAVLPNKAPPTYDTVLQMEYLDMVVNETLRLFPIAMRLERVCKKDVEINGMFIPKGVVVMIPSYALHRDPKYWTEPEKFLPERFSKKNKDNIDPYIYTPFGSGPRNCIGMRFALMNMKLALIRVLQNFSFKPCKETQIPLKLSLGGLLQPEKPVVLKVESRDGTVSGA

[20] = test system: Rattus norvegicus; test: (§3) Toxicity in ip dosed male Wistar rat; assay type: organism-based; conditions: in vivo
[21] = as §3; assay type: organism-based; conditions: male, Wistar, in vivo
[22] = test system: Hepatitis C virus; test: Antiviral activity against HCV genotype 1b infected in human Huh7 cells after 3 days by cell-based replicon assay in presence of 10% fetal bovine serum; assay type: functional, Hepacivirus hominis; conditions: Huh-7, 72 h
[23] = test system: Salmonella typhimurium; test: Mutagenicity in Salmonella typhimurium TA100 assessed as increase in number of colonies by Ames test relative to control; assay type: toxicity, organism-based; conditions: salmonella enterica subsp. enterica serovar typhimurium
[24] = Toxicity in ip dosed SHK mouse; assay type: organism-based; conditions: in vivo
[25] = target: Cytochrome P450 2C19 (Homo sapiens, UniProt P33261); test: Inhibition of human liver CYP2C19; assay type: ADME
Cytochrome P450 2C19, sequence (P33261 whole entry): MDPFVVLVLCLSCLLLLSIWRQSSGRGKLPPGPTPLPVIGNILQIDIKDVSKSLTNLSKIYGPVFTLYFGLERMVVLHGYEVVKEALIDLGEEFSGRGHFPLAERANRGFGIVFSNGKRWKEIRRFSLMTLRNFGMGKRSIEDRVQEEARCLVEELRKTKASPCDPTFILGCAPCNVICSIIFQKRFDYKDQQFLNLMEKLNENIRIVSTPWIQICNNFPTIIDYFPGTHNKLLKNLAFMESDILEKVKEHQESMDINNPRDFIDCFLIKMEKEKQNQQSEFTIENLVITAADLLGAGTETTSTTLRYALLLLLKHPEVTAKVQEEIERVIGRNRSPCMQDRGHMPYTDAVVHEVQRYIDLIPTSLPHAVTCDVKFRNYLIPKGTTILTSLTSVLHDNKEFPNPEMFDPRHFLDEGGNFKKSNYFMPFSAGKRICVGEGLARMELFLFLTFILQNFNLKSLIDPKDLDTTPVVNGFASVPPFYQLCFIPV

[26] = test system: Rattus norvegicus; test: (§4) Toxicity in ip dosed female Wistar rat; assay type: organism-based; conditions: in vivo
[27] = as §4; assay type: organism-based; conditions: female, Wistar, in vivo
[28] = target: Voltage-gated inwardly rectifying potassium channel KCNH2 (Homo sapiens, UniProt Q12809); test: Binding affinity to human ERG at 3 to 30 uM
Voltage-gated inwardly rectifying potassium channel KCNH2, sequence (Q12809 whole entry): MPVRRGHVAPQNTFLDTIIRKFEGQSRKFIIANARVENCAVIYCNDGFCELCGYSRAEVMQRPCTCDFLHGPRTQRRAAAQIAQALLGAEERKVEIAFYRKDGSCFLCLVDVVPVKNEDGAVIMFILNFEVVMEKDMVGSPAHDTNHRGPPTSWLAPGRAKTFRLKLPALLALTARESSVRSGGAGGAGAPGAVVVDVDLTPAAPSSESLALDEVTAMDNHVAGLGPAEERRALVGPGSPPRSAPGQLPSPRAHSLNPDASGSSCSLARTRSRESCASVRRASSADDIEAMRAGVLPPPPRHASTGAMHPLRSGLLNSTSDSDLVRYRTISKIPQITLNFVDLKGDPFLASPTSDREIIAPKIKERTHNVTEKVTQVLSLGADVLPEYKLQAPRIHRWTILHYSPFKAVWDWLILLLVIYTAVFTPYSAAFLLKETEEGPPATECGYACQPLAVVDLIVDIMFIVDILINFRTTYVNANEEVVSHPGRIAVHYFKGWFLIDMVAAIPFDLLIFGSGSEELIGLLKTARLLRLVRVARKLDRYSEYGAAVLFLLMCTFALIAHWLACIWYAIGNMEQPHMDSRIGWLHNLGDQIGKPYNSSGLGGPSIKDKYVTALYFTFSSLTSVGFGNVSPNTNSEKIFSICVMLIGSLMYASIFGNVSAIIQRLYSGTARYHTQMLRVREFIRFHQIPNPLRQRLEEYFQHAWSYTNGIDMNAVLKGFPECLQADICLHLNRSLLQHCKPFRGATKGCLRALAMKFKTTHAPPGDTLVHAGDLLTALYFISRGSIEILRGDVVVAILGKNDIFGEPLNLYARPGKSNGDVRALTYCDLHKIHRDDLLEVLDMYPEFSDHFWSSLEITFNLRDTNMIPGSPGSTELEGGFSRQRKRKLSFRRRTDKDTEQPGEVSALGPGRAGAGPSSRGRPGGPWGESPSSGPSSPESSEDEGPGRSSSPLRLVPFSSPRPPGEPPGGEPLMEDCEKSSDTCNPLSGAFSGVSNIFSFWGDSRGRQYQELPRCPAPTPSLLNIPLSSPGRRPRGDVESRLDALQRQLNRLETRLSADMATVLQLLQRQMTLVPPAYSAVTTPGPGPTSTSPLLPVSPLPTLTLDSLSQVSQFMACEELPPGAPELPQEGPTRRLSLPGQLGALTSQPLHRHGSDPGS

[29] = test system: Yellow fever virus; test: Antiviral activity against Yellow fever virus infected in african green monkey Vero-76 cells after 3 days; assay type: functional, organism-based; conditions: Vero 76, 72 h
[30] = Lipophilicity, log D of the compound at pH 7.4; assay type: physicochemical; conditions: buffer
[31] = Solubility of the compound in dimethyl sulfoxide; assay type: physicochemical
[32] = test system: Salmonella typhimurium; test: Mutagenicity in Salmonella typhimurium TA1537 assessed as increase in number of colonies by Ames test relative to control; assay type: toxicity, organism-based; conditions: salmonella enterica subsp. enterica serovar typhimurium
[33] = test system: Dengue virus; test: Antiviral activity against Dengue virus infected in african green monkey Vero-76 cells after 3 days; assay type: functional, organism-based; conditions: Vero 76, 72 h
[34] = organism: Rattus norvegicus; test: Toxicity in male rat assessed as adverse effect on reproductive organ; assay type: organism-based; conditions: in vivo
[35] = Half life in Sprague-Dawley rat at 11.2 mg/kg, po; assay type: ADME, organism-based; parameters: dose 11.2 mg/kg, route oral; conditions: in vivo
[36] = test system: Hepatitis C virus; test: Antiviral activity against HCV genotype 4a; assay type: functional, Hepacivirus hominis
[37] = Solubility of the compound in water at pH 4; assay type: physicochemical
[38] = Cytotoxicity against Dengue virus infected african green monkey Vero 76 cells after 3 days; assay type: cell-based; conditions: chlorocebus sabaeus, Vero 76 cells infected with Dengue virus
[39] = test system: Hepatitis C virus; test: Antiviral activity against HCV genotype 1a; assay type: functional, Hepacivirus hominis; conditions: subtype 1a
[40] = Cytotoxicity against West Nile virus NY99 infected african green monkey Vero 76 cells after 3 days; assay type: cell-based; conditions: chlorocebus sabaeus, Vero 76 cells infected with West Nile virus NY99
[41] = (§5) Toxicity in po dosed female SHK mouse; assay type: organism-based; conditions: female, SHK, in vivo
[42] = test system: Mus musculus; test: as §5; assay type: organism-based; conditions: in vivo
[43] = organism: Rattus norvegicus; test: Toxicity in rat by 12-weeks study; assay type: organism-based; conditions: in vivo, 2016 h
[44] = test system: West Nile virus; test: Antiviral activity against West Nile virus NY99 infected in african green monkey Vero-76 cells after 3 days; assay type: functional, organism-based; conditions: NY99, Vero 76, 72 h
[45] = target: Cytochrome P450 2D6 (Homo sapiens, UniProt P10635); test: Inhibition of human liver CYP2D6; assay type: ADME
Cytochrome P450 2D6, sequence (P10635 whole entry): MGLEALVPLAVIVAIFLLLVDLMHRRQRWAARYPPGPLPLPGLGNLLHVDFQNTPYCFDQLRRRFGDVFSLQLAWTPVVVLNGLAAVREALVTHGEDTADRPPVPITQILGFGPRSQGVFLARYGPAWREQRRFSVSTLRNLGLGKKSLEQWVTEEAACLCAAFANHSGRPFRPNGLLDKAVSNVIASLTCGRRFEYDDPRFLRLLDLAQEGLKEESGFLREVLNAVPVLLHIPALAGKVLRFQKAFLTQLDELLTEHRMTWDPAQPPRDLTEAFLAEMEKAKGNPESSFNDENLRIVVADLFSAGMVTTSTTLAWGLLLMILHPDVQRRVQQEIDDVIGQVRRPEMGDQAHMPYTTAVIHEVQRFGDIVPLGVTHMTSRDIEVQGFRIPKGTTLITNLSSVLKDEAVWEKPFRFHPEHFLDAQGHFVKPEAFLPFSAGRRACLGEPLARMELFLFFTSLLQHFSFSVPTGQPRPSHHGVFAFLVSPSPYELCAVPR

[46] = Cytotoxicity against Yellow fever virus infected african green monkey Vero 76 cells after 3 days; assay type: cell-based; conditions: chlorocebus sabaeus, Vero 76 cells infected with Yellow fever virus
[47] = Metabolic stability in dog liver microsomes assessed as residual compound at 1 uM after 60 mins; assay type: ADME, Canis lupus familiaris; conditions: read-out: Stability
[48] = Solubility of the compound in alcohol; assay type: physicochemical
[49] = Metabolic stability in rat liver microsomes assessed as residual compound at 1 uM after 60 mins; assay type: ADME; conditions: read-out: Stability
[50] = Solubility of the compound in water at pH 7.4; assay type: physicochemical
[51] = target: Cytochrome P450 2C9 (Homo sapiens, UniProt P11712); test: Inhibition of human liver CYP2C9; assay type: ADME
Cytochrome P450 2C9, sequence (P11712 whole entry): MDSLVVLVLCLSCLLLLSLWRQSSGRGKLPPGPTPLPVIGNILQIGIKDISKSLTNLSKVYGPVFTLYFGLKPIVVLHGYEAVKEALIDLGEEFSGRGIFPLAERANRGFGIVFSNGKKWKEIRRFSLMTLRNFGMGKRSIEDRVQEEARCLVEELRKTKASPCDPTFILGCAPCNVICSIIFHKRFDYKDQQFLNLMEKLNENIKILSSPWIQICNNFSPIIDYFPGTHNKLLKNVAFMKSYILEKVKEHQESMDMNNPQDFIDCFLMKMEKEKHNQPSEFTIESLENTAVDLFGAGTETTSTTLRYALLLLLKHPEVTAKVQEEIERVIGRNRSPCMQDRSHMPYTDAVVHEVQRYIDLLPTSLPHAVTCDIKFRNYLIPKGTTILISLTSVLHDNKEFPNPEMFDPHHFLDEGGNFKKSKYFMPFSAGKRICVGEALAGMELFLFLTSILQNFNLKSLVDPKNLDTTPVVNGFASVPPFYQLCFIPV

[52] = Cytotoxicity against human HuH7 cells; assay type: cell-based, Huh-7
[53] = Half life in beagle dog at 5 mg/kg, iv as 30 mins infusion; assay type: ADME, organism-based, Canis lupus familiaris; parameters: dose 5 mg/kg, route intravenous; conditions: in vivo
[54] = organism: Canis familiaris; test: Toxicity in dog by 6-weeks study; assay type: organism-based, Canis lupus familiaris; conditions: in vivo, 1008 h

SMILES: COC(=O)N[C@H](C(=O)N1CCCC1c1ncc(C#CC#Cc2ccc(-c3cnc(C4CCCN4C(=O)[C@@H](NC(=O)OC)C(C)C)[nH]3)cc2)[nH]1)C(C)C.Cl (single isomer, unassigned; 13a)
- half-life [1]: 4.5 h
- bioavailability [2]: 58%
- LD10 [3]: 234.2 mg/kg
- LD50 [4]: 395 mg/kg
- IC50 [5]: > 10 µM
- EC50 [6]: 0.051 nM
- remaining at 1 h, 1 µM [7]: 81.5%
- Activity [8]: Non-toxic
- half-life [9]: 3.4 h
- solubility [10]: 208 µM
- logP [11]: 4.99
- Activity [12]: Non-toxic
- selectivity ratio [13]: > 5000
- Activity [14]: Non-toxic
- bioavailability [15]: 65%
- LD50 [16]: 3440 mg/kg
- LD10 [17]: 2320.3 mg/kg
- LD16 [17]: 2565.4 mg/kg
- LD84 [17]: 4305.3 mg/kg
- EC50 [18]: 0.021 nM
- IC50 [19]: > 10 µM
- LD10 [20]: 228.6 mg/kg
- LD50 [21]: 349 mg/kg
- EC50 [22]: 3.4 pM
- Activity [23]: Non-toxic
- LD50 [24]: > 1600 mg/kg
- IC50 [25]: > 10 µM
- LD10 [26]: 228.4 mg/kg
- LD50 [27]: 412 mg/kg
- Activity [28]: < 10%
- EC50 [29]: > 23.5 µM
- logD [30]: 4.46
- solubility [31]: ≥ 10 µM
- Activity [32]: Non-toxic
- EC50 [33]: > 28.4 µM
- Activity [34]: Non-toxic
- LD84 [34]: 593.2 mg/kg
- half-life [35]: 3 h
- EC50 [36]: 6.5 pM
- solubility [37]: 2200 µM
- CC50 at 72 h [38]: 28.4 µM
- EC50 [39]: 0.059 nM
- CC50 at 72 h [40]: 26.3 µM
- LD50 [41]: 3010 mg/kg
- LD10 [42]: 1160.1 mg/kg
- LD16 [42]: 1565.7 mg/kg
- LD84 [42]: 4445.3 mg/kg
- Activity [43]: Non-toxic
- LD84 [43]: 651.3 mg/kg
- EC50 [44]: > 26.3 µM
- IC50 [45]: > 10 µM
- CC50 at 72 h [46]: 23.5 µM
- remaining at 1 h, 1 µM [47]: 84.7%
- solubility [48]: ≥ 10 µM
- remaining at 1 h, 1 µM [49]: 70.8%
- solubility [50]: 433 µM
- IC50 [51]: > 10 µM
- CC50 [52]: 17.3 µM
- half-life [53]: 4.9 h
- Activity [54]: Non-toxic
- LD84 [54]: 485.6 mg/kg
